Assay results as given in PubChem BioAssay AID179 (DTP/NCI, 2004).
Active and inactive are the calls of the source.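 Rule for the calls: active = compounds giving half or more protection of infected cells from virus-caused growth loss, again on retest; inactive = the rest.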 Where a SMILES comes first, the peptide text is derived from it. The star is where a group is joined. Boc = CC(C)(C)OC(=O)*

System: CEM cells HIV-1 protection, formazan growth assay
Assay: NCI AIDS Antiviral Assay
Settings: for IC50: measured here: growth of uninfected CEM cells
Summary of the method: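 Screen of anti-HIV-1 activity in human CEM cells using a formazan-based growth measurement at five drug concentrations. Hits with 50% or greater protection were repeated, and confirmation required reproducible complete protection.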

Row | SMILES | outcome | EC50 | IC50
1 | Cc1cc2c(C(C)C)c(O)c(O)c(C=O)c2c(O)c1-c1c(C)c(N(c2cccc3ccccc23)c2cccc3ccccc23)c2c(C(C)C)c(O)c(O)c(C=O)c2c1O | inactive |  | 
2 | CCN(CC)CCOc1ccc(/C(C#N)=C/c2ccc(OCCN3CCCCC3)cc2)cc1 |  | > 200 µM | 0.832 µM
3 | CSc1ccc(Nc2cc(=O)[nH]c(=O)[nH]2)cc1 |  | > 200 µM | > 200 µM
4 | O=C1OC(c2ccccc2)=N/C1=C\c1ccccc1Cl |  | > 35.5 µM | > 35.5 µM
5 | O=C(O)c1c2c(nc3ccccc13)CCC2 |  | > 447 µM | > 447 µM
6 | CCSC1(SCC)CC(Cc2ccc(OC)cc2)N(C=NC(C)(C)C)C1 (stereo not drawn) |  | > 240 µM | 57.5 µM
7 | COc1ccc2c(c1)c1c3n2CCNN=C3CCC1 |  | > 74.1 µM | > 74.1 µM
8 | O=C1CCCN(c2ccccc2)N1 |  | > 1410 µM | > 1410 µM
9 | COc1ccc(/C(C#N)=C/c2cccc(OC)c2OC)cc1 |  | > 200 µM | 28.2 µM
10 | O=C1CC(c2ccc(O)c(O)c2)c2c(cc(O)c3c2O[C@H](c2ccc(O)c(O)c2)[C@H](O)C3)O1 (stereo partly drawn) |  | > 200 µM | 31.6 µM
11 | N=c1c2ncn3c(=O)n(-c4ccccc4)c(nc(=O)n1-c1ccccc1)c23 |  | > 14.5 µM | 8.32 µM
12 | O=C(O)c1ccc[n+](CC(=O)c2ccc(O)c(O)c2)c1 |  | 0.0631 µM | > 200 µM
13 | CC1=C(C)CC2(CCCCC2=O)S(=O)C1 (stereo not drawn) |  | > 1100 µM | 851 µM
14 | COc1ccc(C2CC(c3c(O)ccc4ccccc34)=NN2C(C)=O)cc1OC (stereo not drawn) |  | > 200 µM | 46.8 µM
15 | NNC(=O)c1cc(=O)[nH][nH]1 |  | > 200 µM | > 200 µM
16 | O=C1NC2(CCCC2)C(=O)N2CCCC12 (stereo not drawn) |  | > 129 µM | > 129 µM
17 | Cn1ncc2c(=O)[nH]cnc21 |  | > 316 µM | > 316 µM
18 | CC(=O)Nc1ccc(S(=O)(=O)Nc2ccc(S(=O)(=O)c3ccc(-n4sc5ccccc5c4=O)cc3)cc2)cc1 |  | 16.6 µM | 102 µM
19 | C1=c2ccccc2=C2C(=C(c3ccccc3)C(c3ccccc3)=NN2c2ccccc2)S1 |  | > 4.68 µM | > 4.68 µM
20 | C[C@]12CC[C@H](OC(=O)CCC(=O)O)CC1=CC[C@@H]1C2CC[C@@]2(C)C1CC[C@@H]2c1ncc(-c2ccccc2)s1 (stereo partly drawn) |  | > 9.33 µM | > 9.33 µM
21 | COc1cc2c(cc1O)C(Cc1ccc(Oc3cc(CC4c5cc(O)c(OC)cc5CCN4C)ccc3O)cc1)N(C)CC2 (stereo not drawn) | inactive |  | 

Row | SMILES | outcome | EC50 | IC50
22 | CC(=O)c1sc2c(c1OC(=O)c1ccc(Cl)cc1Cl)c(=O)n(-c1ccccc1)c(=S)n2-c1ccccc1 |  | > 200 µM | 0.0631 µM
23 | COc1ccc(OC)c2c(C(=O)O)c(C(C)c3ccccc3)ccc12 (stereo not drawn) | inactive |  | 
24 | O=C/C(=C(/Br)I)c1ccccc1 |  | > 200 µM | 1.26 µM
25 | N#Cc1ccccc1NC1OCC(O)C(O)C1O (stereo not drawn) | inactive |  | 
26 | Nc1ccccc1N1C(=O)C(Cl)=C(Cl)C1=O | inactive |  | 
27 | c1ccc(C2=NOC3(c4ccccc4)SC4CCCCC4CN23)cc1 (stereo not drawn) |  | > 10.7 µM | > 10.7 µM
28 | Cc1ccc(S(=O)(=O)N/N=C/C2(c3ccccc3)c3ccccc3-c3ccccc32)cc1 |  | > 200 µM | 11.2 µM
29 | Cc1ccc(S(=O)(=O)C(C#N)c2nc3ccccc3nc2-n2cccn2)cc1 (stereo not drawn) |  | > 200 µM | 126 µM
30 | Cc1ccc(C2(Br)C(=O)c3ccccc3C2=O)cc1 |  | > 200 µM | > 200 µM
31 | O=C(/C=C/c1ccc(OCCCCCCCCCCOc2ccc(/C=C/C(=O)c3ccc(Cl)cc3)cc2)cc1)c1ccc(Cl)cc1 |  | > 4.17 µM | > 4.17 µM
32 | COc1ccc2c(c1)C(=O)C13CC(C(=O)N(C)C)C(OC(C)=O)(CCC21)C3 (stereo not drawn) |  | > 95.5 µM | > 95.5 µM
33 | C/C(=N\N=C(/[O-])c1ccncc1)c1cccc(/C(C)=N/N=C(\[O-])c2ccncc2)n1.O.[Cu+2] |  | > 200 µM | 2.24 µM
34 | CC(C)(C)OC(=O)NC(Cc1ccc(O)cc1)C(=O)NC(CCCCN)C(=O)O (stereo not drawn) (Boc-Tyr-Lys-OH; configuration not given here) |  | > 200 µM | 91.2 µM
35 | C#C[C@]1(O)CC[C@H]2[C@@H]3CCC4=C/C(=N/OCCN(C)C)CC[C@]4(C)[C@H]3CC[C@@]21C |  | > 100 µM | 4.79 µM
36 | Cc1cc(C)c2c(c1)CC(C)(C)C(=O)OC2=O |  | > 112 µM | > 112 µM
37 | CC1=C(CO)C(=O)OC(C(C)C2CCC3C4CC5OC56C(O)C(N5CC5)=CC(=O)C6(C)C4CCC23C)C1 (stereo not drawn) | inactive |  | 
38 | Cc1nc(Nc2ccc([N+](=O)[O-])cc2)sc1C(=O)/C=C/c1ccc(N(C)C)cc1 |  | > 33.1 µM | 18.6 µM
39 | CC12CC/C(=N/NC(N)=O)C3C1CCCC32 | inactive |  | 
40 | c1ccc(Cc2nc(Cc3n[nH]c(Cc4ccccc4)n3)n[nH]2)cc1 |  | > 200 µM | > 200 µM
41 | O=C1NC(N2CCCCC2)=N/C1=C\c1cccs1 |  | > 200 µM | 151 µM
42 | COc1ccccc1N1CCN(Cn2c(=O)oc3cccnc32)CC1 |  | > 200 µM | 60.3 µM

Row | SMILES | outcome | EC50 | IC50
43 | N#CNC(N)=Nc1ccc(Cl)cc1 | inactive |  | 
44 | COc1cc(C2c3cc4c(cc3OC(NCCO)C2C)OCO4)cc(OC)c1O (stereo not drawn) |  | > 200 µM | 3.16 µM
45 | O=S(=O)(OC1CC12CCCCC2c1ccccc1)c1ccccc1 (stereo not drawn) |  | > 200 µM | > 200 µM
46 | CC1(C)OCN(c2ccc(S(N)(=O)=O)cc2)Cn2c1nc1ccccc12 |  | > 200 µM | 117 µM
47 | CC(C)(C)OC(=O)CCCCCNC(=O)CCCCCNC(=O)CCC(CN(CC(=O)OCc1ccccc1)CC(=O)OCc1ccccc1)N(CC(=O)OCc1ccccc1)CC(=O)OCc1ccccc1 (stereo not drawn) | inactive |  | 
48 | CC(=O)OCC(C)C1=C(O)C(=O)C2(C)C/C=C(/C)CC/C=C(\C)CCC(O)C(C)CCC12 (stereo not drawn) |  | > 200 µM | 11.5 µM
49 | CCCO/N=[N+](\[O-])N(CC)CC |  | > 8910 µM | > 8910 µM
50 | CCOC(=O)/C(=C\c1cccc(OC)c1)P(=O)(OCC)OCC |  | > 525 µM | 11.5 µM
51 | COC(=O)/C=C(\C(=O)OC)c1c2c3c(cc(OC)c(OC)c3c3ccccc13)CCN2C | inactive |  | 
52 | COc1ccc(/C=C/c2onc3c(=O)n(C)nc(-c4ccccc4)c23)cc1 |  | > 20 µM | > 20 µM
53 | COc1ccc(COCC[C@H](C)OC2OC(CO[Si](C)(C)C(C)(C)C)C(O)C(O)C2O)cc1 (stereo partly drawn) |  | > 200 µM | 16.2 µM
54 | CC(=O)Oc1ccc(/C=C/C(=O)NCCOC(=O)/C=C/c2ccc(OC(C)=O)c(OC(C)=O)c2)cc1OC(C)=O |  | > 100 µM | 15.1 µM
55 | COc1ccccc1NC(=S)N/N=C/c1ccccn1 |  | > 0.2 µM | 0.0955 µM
56 | O=C1OC2CSCC2O1 (stereo not drawn) |  | > 1700 µM | > 1700 µM
57 | CCOC(=O)CC(CC(=O)OCC)n1cnc2c(N)ncnc21 | inactive |  | 
58 | c1ccc(-c2cc(-c3ccccc3)nc(-c3ccncc3)c2)cc1 |  | > 200 µM | > 200 µM
59 | O=C(N/N=C/c1ccccn1)c1ccccc1[O-].O=C(N/N=C/c1ccccn1)c1ccccc1[O-].[Mn+2] |  | > 200 µM | 11.2 µM
60 | COC(=O)C1=C(C(=O)OC)NC2=C(C=N1)CCC2 |  | > 380 µM | > 380 µM
61 | COc1cc([C@@H]2C3C(=O)c4ccccc4C3[C@@H](c3cc(OC)c(OC)c(OC)c3)C23Cc2ccccc2C3=O)cc(OC)c1OC (stereo partly drawn) |  | > 200 µM | 31.6 µM
62 | CSc1ccc(NC(=O)C2c3[nH]c4ccccc4c3C3CCC(C(C)(C)C)CC3C2C(=O)O)cc1 (stereo not drawn) |  | > 7.76 µM | > 7.76 µM
